These are literature values, as cited in publication PMC8198792, “Prediction of Anticancer Peptides with High Efficacy and Low Toxicity by Hybrid Model Based on 3D Structure of Peptides” (International Journal of Molecular Sciences, 2021).

Read-outs that look alike come from different tables or passages of the source.

Series [1] has as its system cancer cell lines. On the set-up: method as in 6 sources, ref CancerPPD [45] and SATPdb ||| ref CancerPPD/SATPdb ||| ref CancerPPD, SATPdb, Swissprot (PDB) ||| ref CancerPPD/SATPdb/Swissprot(PDB) ||| ref CancerPPD / SATPdb ||| ... To be noted: 0 = non-ACP, cited from earlier work. From the text:
Supplement ijms-22-05630-s001.zip/ACPs(seguence).xlsx, sheet "D1" | column: Activity || Supplement ijms-22-05630-s001.zip/ACPs(seguence).xlsx, sheet "D2" | column: Activity || Supplement ijms-22-05630-s001.zip/ACPs(seguence).xlsx, sheet "D3" | column: Activity || (+ 2 further places)

The subject of series [2] is many types of cells, including non-cancer cells. Conditions: toxic peptides dataset TD2; class label 1 (toxic, positive set) or 0 (non-toxic AMP, negative set); ref SATPdb; cited from earlier work.
Where [3] appears, read: ACPs dataset D3 (supplement sheet "D3"), 1 = ACP, ref CancerPPD [45] and SATPdb.
[4] abbreviates: ACPs dataset D4 (sheet "D4"), label 1 = ACP, ref CancerPPD / SATPdb.
Where [5] appears, read: ACPs dataset D5, sheet "D5", label 1 = ACP, ref CancerPPD [45] and SATPdb.
The mark [6] stands for this setting: ACPs dataset D3 (sheet "D3"), label 1 = ACP, ref CancerPPD/SATPdb.

Regarding SILPTIVSFLTKFL [satpdb10195], the Activity in series [1] (setting [3]), in series [1] (setting [4]), in series [1] (setting [5]) and in series [2] was 0 throughout.
On to NLLGSLLKTGLKVGSNLL [satpdb11204], for which the Activity in series [1] (setting [3]) is given as 0; in series [1] (setting [4]) it was 0; in series [1] (setting [5]) it was 0; in series [2], 1.
With GILDVAKTLVGKLRNVLGI [satpdb10523], the Activity in series [1] (setting [3]), in series [1] (setting [4]), in series [1] (setting [5]) and in series [2] was 0 each time.
Take “ILQKAVLDCLKAAGSSLSKAAITAIYNKIT [satpdb12333]”: the Activity in series [1] (setting [6]), in series [1] (setting [4]), in series [1] (setting [5]) and in series [2] was 0 throughout.
Consider LIGPVLGLVGSALGGLLKKI [satpdb10453], for which the Activity in series [1] (setting [3]) is recorded as 0; in series [1] (setting [4]), 0; in series [1] (setting [5]), 0; in series [2], 1.
Take GLADFLNKAVGKVVDFVKS [satpdb10833]: the Activity in series [1] (setting [3]), in series [1] (setting [4]), in series [1] (setting [5]) and in series [2] was 0 throughout.
VOLFPFFNQY [satpdb13046]: the Activity in series [1] (setting [6]), in series [1] (setting [4]), in series [1] (setting [5]) and in series [2] was 0 throughout.
On to “ALALLOHALHOLALLAOHLAHOLALA [satpdb11016]”, for which the Activity in series [1] (setting [3]) and in series [2] was 0 in each case.
With FLGALWNVAKSVF [satpdb13946], the Activity in series [1] (setting [6]), in series [1] (setting [4]), in series [1] (setting [5]) and in series [2] was 0 each time.
Turning to GLLDALSGILGL [satpdb12939], the Activity in series [1] (setting [6]), in series [1] (setting [4]), in series [1] (setting [5]) and in series [2] was 0 in each case.
VOLFPWWNQY [satpdb13995]: the Activity in series [1] (setting [6]), in series [1] (setting [4]), in series [1] (setting [5]) and in series [2] was 0 throughout.
In the case of GLWSKIKDVAAAAGKAALGAVNEAL [satpdb12483], the Activity in series [1] (setting [6]), in series [1] (setting [4]), in series [1] (setting [5]) and in series [2] was 0 throughout.
Turning to GWRLLLKKAEVKTVGKLALKHYL [satpdb14772], the Activity in series [1] (setting [6]), in series [1] (setting [4]), in series [1] (setting [5]) and in series [2] was 0 throughout.
Regarding FASLLGKALKALAKQ [satpdb10678], the Activity in series [1] (setting [3]), in series [1] (setting [4]), in series [1] (setting [5]) and in series [2] was 0 each time.
As to FLPFLAKILTGVL [satpdb14646], the Activity in series [1] (setting [6]), in series [1] (setting [4]), in series [1] (setting [5]) and in series [2] was 0 in each case.
With GKWMSLLKHILK [satpdb20336], the Activity in series [2] is 1.
Turning to IIGHLIKTALGMLGL [satpdb15972], the Activity in series [2] was 0.
As to “LALALKHALHKALLLAKHLAHKLALA [satpdb16273]”, the Activity in series [2] is 0.
For the sequence FIGLLISAGKAIHDLIRRRH [satpdb26817], the Activity in series [2] was 1.
NFLGTLVNLAKKIL [satpdb20410]: the Activity in series [2] was 1.
In the case of FFPLLFGALSSHLPKLF [satpdb16485], the Activity in series [2] is recorded as 1.
Consider GILDAIKAFANALG [satpdb15517], for which the Activity in series [2] is on record as 0.
As to “GLPVCGETCVGGTCNTPGCTCSWPVCTRN [satpdb19932]”, in series [2], the Activity is recorded as 1.
On to IIGAIAAALPHVINAIKNTF [satpdb19948], for which the Activity in series [2] was 1.
As for IFGAILPLALGALKNLIK [satpdb27411], the Activity in series [2] is 1.
On to GVVDILKGAGKDLLAHLVGKISEKV [satpdb27434], for which, in series [2], the Activity is on record as 1.
In the case of GFGPAFHSVSNFAKKHKTA [satpdb16916], the Activity in series [2] was 0.
“GIGGVLLGAGKATLKGLAKVLAEKYAN [satpdb26873]”: the Activity in series [2] was 1.
For the sequence GLWQKIKNAAGDLASGIVEGIKS [satpdb17290], the Activity in series [2] is reported as 0.
FFGWLIKGAIHAGKAIHGLIHRRRH [satpdb28313]: the Activity in series [2] was 1.
Turning to GFRKFHKFWA [satpdb14908], the Activity in series [2] is reported as 0.
In the case of FFPLVLGALGSILPKIF [satpdb25475], the Activity in series [2] is 1.
For the sequence FIGALLRPALKLLAGK [satpdb27126], the Activity in series [2] is listed as 1.
Regarding GLVTSLIKGAGKLLGGLFGSVTG [satpdb15873], in series [2], the Activity is 0.
Consider FLSGIVGMLGKLF [satpdb21516], for which the Activity in series [2] is recorded as 1.
As for GVLDILKNAAKNILAHAAEQI [satpdb26113], the Activity in series [2] is listed as 1.
In the case of LGPALITRKPLKGKP [satpdb17072], the Activity in series [2] is given as 0.
Turning to ILPWKWPWWPWRR [satpdb22480], the Activity in series [2] is 1.
For the sequence GLFDIIKKVASVIGGL [satpdb15856], the Activity in series [2] is 0.
Regarding “RRIPRPILLPWRPPRPIPRPQPQPIPRWL [satpdb15488]”, in series [2], the Activity was 0.
As to NFLGTLINLAKKIM [satpdb14927], the Activity in series [2] is recorded as 0.
Turning to GLLSFLPKVIGVIGHLIHPPS [satpdb15305], the Activity in series [2] is 0.
Consider KILRGVSKKIMRTFLRRILTGKK [satpdb23198], for which, in series [2], the Activity is on record as 1.
In the case of GLFDIIKKIAESF [satpdb11488], the Activity in series [2] is 0.
GVLDIFKDAAKQILAHAAEKQI [satpdb12665]: the Activity in series [2] is 1.
With FISGLIGGLMKAL [satpdb16102], the Activity in series [2] was 0.
Regarding GMWSKILGHLIR [satpdb20159], the Activity in series [2] was 1.
Consider SAPRGCWTKSYPPKPCK [satpdb28266], for which the Activity in series [2] is recorded as 1.
In the case of GFIFHIIKGLFHAGKMIHGLV [satpdb15908], the Activity in series [2] was 0.
GIGGALLSAGKAALKGLAKVLV [satpdb22839]: in series [2], the Activity is on record as 1.
Consider KISKKIMRTFLRRILTGKK [satpdb19592], for which the Activity in series [2] is given as 1.
FIPLVSGLFSRLL [satpdb15094]: the Activity in series [2] was 0.
Turning to GLGSLVGNALRIGAKLL [satpdb15217], in series [2], the Activity was 0.
For IIGPVLGLVGKPLESLLE [satpdb17226], the Activity in series [2] is 0.
For the sequence “GWLRKAAKSVGKFYYKHKYYIKAAWKIGRHAL [satpdb17212]”, the Activity in series [2] is on record as 0.
Turning to “LKLSPKTKDTLKKVLKGAIKGAIAIASMA [satpdb13200]”, the Activity in series [2] was 1.
As to FFGAIAAALPHVISAIKNAL [satpdb28842], the Activity in series [2] is listed as 1.
For the sequence GLKDIFKAGLGSLVKNIAAHVAN [satpdb11475], in series [2], the Activity is 0.
With ALYLAIRRR [satpdb16531], the Activity in series [2] is 0.
As for GMASKAGSVLGKLAKVAIGAL [satpdb16457], in series [2], the Activity is listed as 0.
In the case of LLGMIPLAISAISSLSKL [satpdb20037], the Activity in series [2] is 1.
